Test results taken from US8324280B2, “Treatment of prostate cancer with DDC inhibitor” (The University of British Columbia, priority 2008, dated 2012).

Test system: C4-2 xenografts
Assay: Androgen-independent C4-2 tumour xenografts in pre-castrated mice
Assay type: in vivo
Method: Parental C4-2 cells were inoculated subcutaneously (s.c.), after resuspension in 0.1 mL of Matrigel (Becton Dickinson Labware), into two flank regions (2.5×10^6 cells/site) of 6 to 8 week old castrated (to ensure tumors will be androgen-independent) male athymic nude mice (Harlan Sprague Dawley, Inc.) via a 27-gauge needle under halothane anesthesia. Tumour volume and serum PSA measurements (blood collected from the tail vein) were performed once per week after tumours became palpable. PSA levels were measured by ELISA (ClinPro International) and tumour size was calculated by the formula; length×width×depth×0.5236. Once serum PSA values reached 75-100 ng/mL, mice were treated with or without carbidopa. Carbidopa was purchased from Sigma and dissolved in DMSO. The solution was diluted in PBS to a final concentration of 10% DMSO and sterilized through a 0.2 μm filter. Carbidopa solution was injected intraperitoneally into half of the mice (25 mg per kg of body weight) for the +carbidopa groups, while the remaining mice received vehicle injections consisting of 10% DMSO in PBS (−carbidopa groups). Injections were carried out daily for the duration of the experiment. Each animal group contained 2-3 mice. PSA measurements were used to calculate PSA velocity and volume measurements were used to determine the tumour growth rate for all groups with linear regression slope analysis (see Statistical Analysis below). PSA velocity was defined as the increase in PSA level (normalized to pre-treatment value set at 100%) divided by number of days that PSA was reliably measurable (21 days). […] All animal procedures were performed according to the guidelines of the Canadian Council of Animal Care and with appropriate institutional certification. C4-2 xenograft tumour volume and PSA values (−/+carbidopa) were used for linear regression slope analysis to determine PSA velocity and tumour growth rate with GraphPad Prism 4, version 4.03. PSA velocity and tumour growth rate differences were determined using the Student's t-test.

C[C@@](Cc1ccc(O)c(O)c1)(NN)C(=O)O [carbidopa, α-Methyl-dopahydrazine] was tested, and the “reduction of tumour growth rate versus control” value (21 days) was 2.1 fold, the “decrease in PSA velocity versus control non-treated” value (over 21 days) was 4.1 fold and the tumour growth rate (pre-castrated mice, 25 mg/kg i.p. daily, 21 days) was 5.7±0.6. The “PSA velocity (rate of PSA production)” value (pre-castrated mice, 25 mg/kg i.p. daily, over 21 days) was 4.7±2.
